SMILES strings stand for the structures. Read-outs that look alike come from different tables or passages of the source. Where only a bound is given, the exact number is not on record here.

This note sets out measurements from patent US20250352512A2, “C4-S[…] DERIVATIVES AND METHODS OF USING” (priority 2022, published 2025).

Holding throughout (assay): cell-based
The target of experiment [1] is SERT (Homo sapiens, UniProt P31645).
In experiment [2] the target is T1, ADRA1A (Homo sapiens, UniProt P35348).
T1 sequence (P35348 1-466): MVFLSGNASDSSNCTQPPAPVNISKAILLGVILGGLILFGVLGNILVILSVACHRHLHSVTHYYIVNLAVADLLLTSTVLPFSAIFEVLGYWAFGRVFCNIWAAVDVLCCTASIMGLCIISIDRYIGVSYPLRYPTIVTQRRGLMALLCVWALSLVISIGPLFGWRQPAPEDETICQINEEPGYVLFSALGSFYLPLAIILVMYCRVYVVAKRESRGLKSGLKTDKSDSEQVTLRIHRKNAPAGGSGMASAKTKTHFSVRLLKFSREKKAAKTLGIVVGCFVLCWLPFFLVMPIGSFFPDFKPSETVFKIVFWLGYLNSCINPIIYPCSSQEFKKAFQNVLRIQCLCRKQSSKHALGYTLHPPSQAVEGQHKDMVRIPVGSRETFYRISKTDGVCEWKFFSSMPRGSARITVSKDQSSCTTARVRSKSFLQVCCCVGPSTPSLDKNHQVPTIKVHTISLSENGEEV

Experiment [3] deals with T2, HTR1A (5-HT1A) (Homo sapiens, UniProt P08908).
T2 sequence (P08908 1-422): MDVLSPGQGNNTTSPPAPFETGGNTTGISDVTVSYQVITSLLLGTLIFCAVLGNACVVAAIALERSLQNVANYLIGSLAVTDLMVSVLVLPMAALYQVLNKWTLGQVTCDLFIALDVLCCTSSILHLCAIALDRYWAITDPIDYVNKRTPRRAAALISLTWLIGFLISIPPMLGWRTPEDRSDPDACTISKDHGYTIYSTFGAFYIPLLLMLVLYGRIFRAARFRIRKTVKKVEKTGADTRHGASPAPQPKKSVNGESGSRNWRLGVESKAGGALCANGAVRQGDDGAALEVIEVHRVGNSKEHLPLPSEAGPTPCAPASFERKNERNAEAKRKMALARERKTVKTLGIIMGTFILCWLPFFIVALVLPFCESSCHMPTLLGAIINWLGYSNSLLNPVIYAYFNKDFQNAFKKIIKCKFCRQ

The target of experiment [4] is NMDAR (Homo sapiens, UniProt Q05586+Q13224).
NMDAR, sequence (Q13224 27-1484, other chains not shown): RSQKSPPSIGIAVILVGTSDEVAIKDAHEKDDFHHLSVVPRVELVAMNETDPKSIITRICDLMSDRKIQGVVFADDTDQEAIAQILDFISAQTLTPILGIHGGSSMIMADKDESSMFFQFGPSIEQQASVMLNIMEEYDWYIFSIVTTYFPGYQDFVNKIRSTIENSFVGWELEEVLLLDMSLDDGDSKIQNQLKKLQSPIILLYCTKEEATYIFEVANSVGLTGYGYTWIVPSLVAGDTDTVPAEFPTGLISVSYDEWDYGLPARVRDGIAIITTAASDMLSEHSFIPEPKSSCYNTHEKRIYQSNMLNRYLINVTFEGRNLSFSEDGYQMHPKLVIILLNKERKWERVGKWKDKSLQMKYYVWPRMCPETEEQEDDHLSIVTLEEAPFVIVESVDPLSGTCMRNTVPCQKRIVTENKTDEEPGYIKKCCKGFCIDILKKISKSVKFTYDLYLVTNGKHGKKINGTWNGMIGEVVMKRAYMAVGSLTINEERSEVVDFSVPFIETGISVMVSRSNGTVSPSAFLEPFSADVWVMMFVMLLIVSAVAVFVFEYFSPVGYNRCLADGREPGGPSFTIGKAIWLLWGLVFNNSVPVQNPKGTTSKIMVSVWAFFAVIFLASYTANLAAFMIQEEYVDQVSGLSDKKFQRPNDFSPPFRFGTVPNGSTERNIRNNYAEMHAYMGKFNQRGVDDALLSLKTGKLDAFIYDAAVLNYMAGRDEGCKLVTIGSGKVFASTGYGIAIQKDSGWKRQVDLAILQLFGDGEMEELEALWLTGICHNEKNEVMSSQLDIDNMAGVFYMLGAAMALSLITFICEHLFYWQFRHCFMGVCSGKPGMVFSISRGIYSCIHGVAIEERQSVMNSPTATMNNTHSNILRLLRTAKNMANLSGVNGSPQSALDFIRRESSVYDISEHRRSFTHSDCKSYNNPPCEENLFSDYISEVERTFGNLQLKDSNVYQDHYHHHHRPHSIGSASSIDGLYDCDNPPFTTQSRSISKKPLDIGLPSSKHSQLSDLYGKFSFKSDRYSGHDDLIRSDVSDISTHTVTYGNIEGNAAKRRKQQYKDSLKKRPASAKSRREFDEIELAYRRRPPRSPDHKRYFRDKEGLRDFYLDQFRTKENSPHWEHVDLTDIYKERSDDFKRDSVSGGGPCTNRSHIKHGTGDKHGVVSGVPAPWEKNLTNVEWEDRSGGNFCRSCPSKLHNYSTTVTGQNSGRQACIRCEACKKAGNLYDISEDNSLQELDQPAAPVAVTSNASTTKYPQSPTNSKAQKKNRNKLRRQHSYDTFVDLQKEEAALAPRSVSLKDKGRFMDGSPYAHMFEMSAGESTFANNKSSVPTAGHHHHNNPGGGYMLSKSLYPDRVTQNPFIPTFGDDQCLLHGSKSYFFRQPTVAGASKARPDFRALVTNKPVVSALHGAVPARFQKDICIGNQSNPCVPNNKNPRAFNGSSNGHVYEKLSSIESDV
For experiment [5], the target named is HTR1B (5-HTR1B) (Homo sapiens, UniProt P28222).
HTR1B (5-HTR1B), sequence (P28222 whole entry): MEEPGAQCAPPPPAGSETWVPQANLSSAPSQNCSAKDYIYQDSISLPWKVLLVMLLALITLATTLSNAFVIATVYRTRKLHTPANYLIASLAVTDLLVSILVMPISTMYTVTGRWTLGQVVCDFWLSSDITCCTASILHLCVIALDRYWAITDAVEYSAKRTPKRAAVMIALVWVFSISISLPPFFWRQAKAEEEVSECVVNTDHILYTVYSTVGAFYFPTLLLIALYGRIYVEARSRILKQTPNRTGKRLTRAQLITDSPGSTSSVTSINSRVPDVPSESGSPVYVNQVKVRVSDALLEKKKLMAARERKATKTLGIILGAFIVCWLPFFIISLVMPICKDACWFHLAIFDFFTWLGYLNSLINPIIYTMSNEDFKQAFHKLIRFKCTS
Experiment [6] deals with T3, HTR3A (5-HT3A) (Homo sapiens, UniProt P46098).
T3 sequence (P46098 24-478): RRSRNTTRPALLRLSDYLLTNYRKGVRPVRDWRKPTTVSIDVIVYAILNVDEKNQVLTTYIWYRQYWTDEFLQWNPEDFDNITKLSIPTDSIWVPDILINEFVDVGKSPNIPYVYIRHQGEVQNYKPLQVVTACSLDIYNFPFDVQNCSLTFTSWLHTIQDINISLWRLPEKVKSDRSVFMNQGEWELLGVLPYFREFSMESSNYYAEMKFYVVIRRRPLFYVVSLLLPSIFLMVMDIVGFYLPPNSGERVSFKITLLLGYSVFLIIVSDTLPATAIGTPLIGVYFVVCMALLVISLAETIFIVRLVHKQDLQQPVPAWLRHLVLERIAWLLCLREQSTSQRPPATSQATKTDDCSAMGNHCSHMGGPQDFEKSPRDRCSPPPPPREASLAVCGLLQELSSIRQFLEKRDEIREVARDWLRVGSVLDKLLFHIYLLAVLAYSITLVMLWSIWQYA

For experiment [7], the target named is T1, ADRA1A. The source holds these as a separate data set.
The target of experiment [8] is DRD1 (Homo sapiens, UniProt P21728).
DRD1, sequence (P21728 whole entry): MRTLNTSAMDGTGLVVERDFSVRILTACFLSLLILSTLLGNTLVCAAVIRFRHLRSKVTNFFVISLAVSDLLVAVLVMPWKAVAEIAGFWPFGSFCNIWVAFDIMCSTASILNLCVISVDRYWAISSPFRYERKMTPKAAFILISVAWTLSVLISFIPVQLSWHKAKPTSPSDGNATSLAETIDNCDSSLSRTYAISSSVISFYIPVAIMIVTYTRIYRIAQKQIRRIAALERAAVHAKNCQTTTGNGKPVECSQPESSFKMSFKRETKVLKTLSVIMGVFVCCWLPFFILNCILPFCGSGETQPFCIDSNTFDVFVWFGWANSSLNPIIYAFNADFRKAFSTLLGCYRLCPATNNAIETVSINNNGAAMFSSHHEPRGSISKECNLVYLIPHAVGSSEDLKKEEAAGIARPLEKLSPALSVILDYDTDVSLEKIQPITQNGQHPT
Setting [9] is: SERT, transporter, BL (blocker), read-out: IC50.
Setting [10] is: ADRA1A, GPCR, ANT (antagonist), read-out: IC50.
The mark [11] stands for this setting: HTR1A, GPCR, ANT (antagonist), read-out: IC50.
Where [12] appears, read: NMDAR, ion channel, OP (opener), read-out: EC50.
The mark [13] stands for this setting: HTR1B, GPCR, ANT (antagonist), read-out: IC50.
[14] abbreviates: HTR3A, ion channel, BL (blocker), read-out: IC50.
Where [15] appears, read: ADRA1A, GPCR, AGN (agonist), read-out: EC50.
Where [16] appears, read: DRD1, GPCR, AGN (agonist), read-out: EC50.

SERT, sequence (P31645 whole entry): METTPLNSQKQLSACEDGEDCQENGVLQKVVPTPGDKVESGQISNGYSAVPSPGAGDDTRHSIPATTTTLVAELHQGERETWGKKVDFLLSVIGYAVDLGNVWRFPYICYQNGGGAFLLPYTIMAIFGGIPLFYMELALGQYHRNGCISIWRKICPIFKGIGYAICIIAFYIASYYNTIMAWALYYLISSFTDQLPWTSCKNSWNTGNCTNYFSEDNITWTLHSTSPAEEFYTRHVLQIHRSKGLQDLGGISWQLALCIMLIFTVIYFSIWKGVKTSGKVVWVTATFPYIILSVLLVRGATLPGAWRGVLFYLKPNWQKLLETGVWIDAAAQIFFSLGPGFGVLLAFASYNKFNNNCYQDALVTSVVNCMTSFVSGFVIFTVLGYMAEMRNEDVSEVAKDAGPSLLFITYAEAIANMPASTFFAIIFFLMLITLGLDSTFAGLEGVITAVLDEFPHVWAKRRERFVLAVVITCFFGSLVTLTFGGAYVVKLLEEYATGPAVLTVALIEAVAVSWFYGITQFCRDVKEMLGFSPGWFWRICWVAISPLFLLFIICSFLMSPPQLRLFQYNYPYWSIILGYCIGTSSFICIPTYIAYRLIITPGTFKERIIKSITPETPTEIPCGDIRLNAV

`CN(C)Cc1c[nH]c2cccc(O[Si](C)(C)C(C)(C)C)c12` [A(IV)]: the IC50 – broadly, the midpoint of a concentration-inhibition curve – in experiment [1] (setting [9]) was above 100 µM; in experiment [2] (setting [10]), 18.5 µM; in experiment [3] (setting [11]), above 100 µM; in experiment [5] (setting [13]), above 100 µM; in experiment [6] (setting [14]), 0.83 µM. In addition, the EC50 in experiment [4] (setting [12]), in experiment [7] (setting [15]) and in experiment [8] (setting [16]) was above 100 µM in each case.

On to `CC(C)[Si](Oc1cccc2[nH]cc(CN(C)C)c12)(C(C)C)C(C)C` [A(V)], for which the IC50 in experiment [1] (setting [9]) is above 100 µM; in experiment [2] (setting [10]) it was 19.6 µM; in experiment [3] (setting [11]), above 100 µM; in experiment [5] (setting [13]) it was above 100 µM; in experiment [6] (setting [14]) it was 1.43 µM. The EC50 (usually the concentration at which the effect is half-maximal) was 87.5 µM in experiment [4] (setting [12]), above 100 µM in experiment [7] (setting [15]) and above 100 µM in experiment [8] (setting [16]).

As to `CN(C)CCc1c[nH]c2cccc(OC(=O)OCc3ccccc3)c12` [B(II)], the IC50 in experiment [1] is 10.4 µM; in experiment [2], 3.66 µM; in experiment [3], above 100 µM; in experiment [5], above 100 µM; in experiment [6] it was 2.34 µM. The EC50 in experiment [4], in experiment [7] and in experiment [8] was above 100 µM throughout.

Consider `CN(C)CCc1c[nH]c2cccc(OC(=O)OCC3CC3)c12` [B(III)], for which the IC50 was above 100 µM in experiment [1] (setting [9]); 12.6 µM in experiment [2] (setting [10]); above 100 µM in experiment [3] (setting [11]); above 100 µM in experiment [5] (setting [13]); 47.4 µM in experiment [6] (setting [14]). In addition, the EC50 in experiment [4] (setting [12]), in experiment [7] (setting [15]) and in experiment [8] (setting [16]) was above 100 µM throughout.

As for `CCCCC(=O)OCOc1cccc2[nH]cc(CCN(C)C)c12` [D(III)], the IC50 in experiment [1] (setting [9]) was above 100 µM; in experiment [2] (setting [10]), 3.86 µM; in experiment [3] (setting [11]), above 100 µM; in experiment [5] (setting [13]), above 100 µM; in experiment [6] (setting [14]), 32.4 µM. In addition, the EC50 in experiment [4] (setting [12]), in experiment [7] (setting [15]) and in experiment [8] (setting [16]) was above 100 µM in each case.

For `CCCC(=O)OCOc1cccc2[nH]cc(CCN(C)C)c12` [D(IV)], the IC50 in experiment [1] (setting [9]) was above 100 µM; in experiment [2] (setting [10]) it was 12.9 µM; in experiment [3] (setting [11]) it was above 100 µM; in experiment [5] (setting [13]), above 100 µM; in experiment [6] (setting [14]), above 100 µM. Also, the EC50 in experiment [4] (setting [12]), in experiment [7] (setting [15]) and in experiment [8] (setting [16]) was above 100 µM in each case.

Take `CC(C)OC(=O)OCOc1cccc2c1c(CCN(C)C)cn2COC(=O)OC(C)C` [D(XIII)]: the IC50 in experiment [1] (setting [9]) was above 100 µM; in experiment [2] (setting [10]), above 100 µM; in experiment [3] (setting [11]), above 100 µM; in experiment [5] (setting [13]), above 100 µM; in experiment [6] (setting [14]) it was 16.7 µM. Besides, the EC50 in experiment [4] (setting [12]), in experiment [7] (setting [15]) and in experiment [8] (setting [16]) was above 100 µM each time.

For the molecule `CN(C)CCc1c[nH]c2cccc(OP(=O)(Oc3ccccc3)Oc3ccccc3)c12` [F(I)], the half-maximal inhibitory concentration (IC50) was 39.2 µM in experiment [1] (setting [9]); 14.8 µM in experiment [2]; above 100 µM in experiment [3]; above 100 µM in experiment [5]; 2.52 µM in experiment [6]. Further, the EC50 in experiment [4], in experiment [7] and in experiment [8] was above 100 µM each time.
